Assay results: patent publication US7767659B2, “Synthesis of naturally occurring ecteinascidins and related compounds” (Pharma Mar, S.A., priority 2002, dated 2010)
Where two headings read alike, the source gives them in different places.

How the values were obtained:
K-562 = test: Inhibition of cells growth by colorimetric assay (SRB)
In short: (§1)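 Colorimetric SRB read (490 nm) on triplicate wells after 48 h at 37 °C, 5% CO2. Dose range 10 to 10^−8 μg/ml; 5×10^3 cells/well pre-attached 18 h.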

IGROV-ET = test: as above
In short: as §1

SK-BR-3 = test: as above
In short: as §1

LoVo-Dox = test: as above
In short: as §1

HeLa = test: as above
In short: as §1

SK-MEL-28 = test: as above
In short: as §1

IGROV-1 = test: as above
In short: as §1

HeLa-APL = test: as above
In short: as §1

DU-145 = test: as above
In short: as §1

PANC-1 = test: as above
In short: as §1

LNCaP = test: as above
In short: as §1

HT-29 = test: cells
In short: as §1

LoVo = test: cells
In short: as §1

A-549 = test: cells
In short: as §1

In the case of C=CCN1C2Cc3cc(C)c(OC)c(O)c3C1C1C3SCC(NC(C)=O)C(=O)OCC(c4c5c(c(C)c(OC(C)=O)c43)OCO5)N1C2C#N (stereo not drawn) [compound 24], the “TGI K562” value (K-562; K562, SRB, 48 hours exposure) is reported as 1.71E−08 Molar, the GI50 (K-562; read-out: GI50 K562, K562, SRB, 48 hours exposure) is reported as 4.07 nM and the CC50 (K-562; read-out: LC50 K562, K562, SRB, 48 hours exposure) is reported as 93.8 nM. For the same compound, the “TGI IGROV-ET” value (IGROV-ET; IGROV-ET, SRB, 48 hours exposure) was 6.20E−08 Molar, the GI50 (IGROV-ET; read-out: GI50 IGROV-ET, IGROV-ET, SRB, 48 hours exposure) was 29.5 nM and the CC50 (IGROV-ET; read-out: LC50 IGROV-ET, IGROV-ET, SRB, 48 hours exposure) was 130 nM. For the same compound, the “TGI SK-BR3” value (SK-BR-3; SK-BR3, SRB, 48 hours exposure) was 6.38E−08 Molar, the GI50 (SK-BR-3; read-out: GI50 SK-BR3, SK-BR3, SRB, 48 hours exposure) was 24.8 nM and the CC50 (SK-BR-3; read-out: LC50 SK-BR3, SK-BR3, SRB, 48 hours exposure) was 269 nM. The “TGI LOVO-DOX” value (LoVo-Dox; LOVO-DOX, SRB, 48 hours exposure) was 1.74E−06 Molar, the GI50 (LoVo-Dox; read-out: GI50 LOVO-DOX, LOVO-DOX, SRB, 48 hours exposure) was 115 nM and the CC50 (LoVo-Dox; read-out: LC50 LOVO-DOX, LOVO-DOX, SRB, 48 hours exposure) was 14500 nM. For the same compound, the “TGI HELA” value (HeLa; HELA, SRB, 48 hours exposure) was 4.76E−08 Molar, the GI50 (HeLa; read-out: GI50 HELA, HELA, SRB, 48 hours exposure) was 20.3 nM and the CC50 (HeLa; read-out: LC50 HELA, HELA, SRB, 48 hours exposure) was 112 nM. For the same compound, the “TGI MEL-28” value (SK-MEL-28; MEL-28, SRB, 48 hours exposure) was 4.27E−08 Molar, the GI50 (SK-MEL-28; read-out: GI50 MEL-28, MEL-28, SRB, 48 hours exposure) was 20.1 nM and the CC50 (SK-MEL-28; read-out: LC50 MEL-28, MEL-28, SRB, 48 hours exposure) was 90.9 nM. The “TGI IGROV” value (IGROV-1; IGROV, SRB, 48 hours exposure) was 3.18E−08 Molar, the GI50 (IGROV-1; read-out: GI50 IGROV, IGROV, SRB, 48 hours exposure) was 8.21 nM and the CC50 (IGROV-1; read-out: LC50 IGROV, IGROV, SRB, 48 hours exposure) was 110 nM. For the same compound, the “TGI HELA-APL” value (HeLa-APL; HELA-APL, SRB, 48 hours exposure) was 4.65E−08 Molar, the GI50 (HeLa-APL; read-out: GI50 HELA-APL, HELA-APL, SRB, 48 hours exposure) was 20.3 nM and the CC50 (HeLa-APL; read-out: LC50 HELA-APL, HELA-APL, SRB, 48 hours exposure) was 107 nM. The “TGI DU145” value (DU-145; DU145, SRB, 48 hours exposure) was 5.23E−08 Molar, the GI50 (DU-145; read-out: GI50 DU145, DU145, SRB, 48 hours exposure) was 27.8 nM and the CC50 (DU-145; read-out: LC50 DU145, DU145, SRB, 48 hours exposure) was 125 nM. For the same compound, the “TGI PANC-1” value (PANC-1; PANC-1, SRB, 48 hours exposure) was 9.19E−08 Molar, the GI50 (PANC-1; read-out: GI50 PANC-1, PANC-1, SRB, 48 hours exposure) was 30.1 nM and the CC50 (PANC-1; read-out: LC50 PANC-1, PANC-1, SRB, 48 hours exposure) was 14500 nM. The “TGI LNCAP” value (LNCaP; LNCAP, SRB, 48 hours exposure) was 2.53E−08 Molar, the GI50 (LNCaP; read-out: GI50 LNCAP, LNCAP, SRB, 48 hours exposure) was 8.4 nM and the CC50 (LNCaP; read-out: LC50 LNCAP, LNCAP, SRB, 48 hours exposure) was 64.4 nM. For the same compound, the “TGI HT29” value (HT-29; HT29, SRB, 48 hours exposure) was 1.39E−08 Molar, the GI50 (HT-29; read-out: GI50 HT29, HT29, SRB, 48 hours exposure) was 5.17 nM and the CC50 (HT-29; read-out: LC50 HT29, HT29, SRB, 48 hours exposure) was 14500 nM. The “TGI LOVO” value (LoVo; LOVO, SRB, 48 hours exposure) was 8.21E−08 Molar, the GI50 (LoVo; read-out: GI50 LOVO, LOVO, SRB, 48 hours exposure) was 26.1 nM and the CC50 (LoVo; read-out: LC50 LOVO, LOVO, SRB, 48 hours exposure) was 14500 nM. For the same compound, the “TGI A549” value (A-549; A549, SRB, 48 hours exposure) was 4.62E−08 Molar, the GI50 (A-549; read-out: GI50 A549, A549, SRB, 48 hours exposure) was 21.9 nM and the CC50 (A-549; read-out: LC50 A549, A549, SRB, 48 hours exposure) was 97.4 nM.

Compound COc1cc2c(cc1O)CCN[C@]21CS[C@@H]2c3c(OC(=O)/C=C/c4ccccc4)c(C)c4c(c3[C@H](COC1=O)N1C2[C@@H]2N[C@@H](Cc3cc(C)c(OC)c(O)c32)[C@@H]1O)OCO4 (stereo partly drawn) [compound 53] has a GI50 (K-562; Homo sapiens, K562, 48 h, read-out: K562 GI50) of 1.54 nM, a CC50 (K-562; Homo sapiens, K562, 48 h, read-out: K562 LC50) of 583 nM and an IC (TGI) (K-562; Homo sapiens, K562, 48 h, read-out: K562 TGI) of 13 nM. The GI50 (IGROV-ET; Homo sapiens, 48 h, read-out: IGROV-ET GI50) was 10.2 nM, the CC50 (IGROV-ET; Homo sapiens, 48 h, read-out: IGROV-ET LC50) was 6450 nM and the IC (TGI) (IGROV-ET; Homo sapiens, 48 h, read-out: IGROV-ET TGI) was 1400 nM. For the same compound, the GI50 (SK-BR-3; Homo sapiens, SK-BR-3, 48 h, read-out: SK-BR3 GI50) was 2.95 nM, the CC50 (SK-BR-3; Homo sapiens, SK-BR-3, 48 h, read-out: SK-BR3 LC50) was 1820 nM and the IC (TGI) (SK-BR-3; Homo sapiens, SK-BR-3, 48 h, read-out: SK-BR3 TGI) was 29.9 nM. It also gave a GI50 (LoVo-Dox; Homo sapiens, 48 h, read-out: LOVO-DOX GI50) of 57.9 nM, a CC50 (LoVo-Dox; Homo sapiens, 48 h, read-out: LOVO-DOX LC50) of 5240 nM and an IC (TGI) (LoVo-Dox; Homo sapiens, 48 h, read-out: LOVO-DOX TGI) of 1450 nM. For the same compound, the GI50 (HeLa; Homo sapiens, HeLa, 48 h, read-out: HELA GI50) was 3.12 nM, the CC50 (HeLa; Homo sapiens, HeLa, 48 h, read-out: HELA LC50) was 83.9 nM and the IC (TGI) (HeLa; Homo sapiens, HeLa, 48 h, read-out: HELA TGI) was 7.55 nM. For the same compound, the GI50 (SK-MEL-28; Homo sapiens, SK-MEL-28, 48 h, read-out: MEL-28 GI50) was 2.21 nM, the CC50 (SK-MEL-28; Homo sapiens, SK-MEL-28, 48 h, read-out: MEL-28 LC50) was 7.2 nM and the IC (TGI) (SK-MEL-28; Homo sapiens, SK-MEL-28, 48 h, read-out: MEL-28 TGI) was 4 nM. The GI50 (IGROV-1; Homo sapiens, IGROV-1, 48 h, read-out: IGROV GI50) was 2.74 nM, the CC50 (IGROV-1; Homo sapiens, IGROV-1, 48 h, read-out: IGROV LC50) was 2740 nM and the IC (TGI) (IGROV-1; Homo sapiens, IGROV-1, 48 h, read-out: IGROV TGI) was 6.72 nM. The GI50 (HeLa-APL; Homo sapiens, 48 h, read-out: HELA-APL GI50) was 2.99 nM, the CC50 (HeLa-APL; Homo sapiens, 48 h, read-out: HELA-APL LC50) was 38.9 nM and the IC (TGI) (HeLa-APL; Homo sapiens, 48 h, read-out: HELA-APL TGI) was 12.2 nM. For the same compound, the GI50 (DU-145; Homo sapiens, DU-145, 48 h, read-out: DU145 GI50) was 3.58 nM, the CC50 (DU-145; Homo sapiens, DU-145, 48 h, read-out: DU145 LC50) was 3040 nM and the IC (TGI) (DU-145; Homo sapiens, DU-145, 48 h, read-out: DU145 TGI) was 24.3 nM. For the same compound, the GI50 (PANC-1; Homo sapiens, PANC-1, 48 h, read-out: PANC-1 GI50) was 3.36 nM, the CC50 (PANC-1; Homo sapiens, PANC-1, 48 h, read-out: PANC-1 LC50) was 1440 nM and the IC (TGI) (PANC-1; Homo sapiens, PANC-1, 48 h, read-out: PANC-1 TGI) was 10.1 nM. It also gave a GI50 (LNCaP; Homo sapiens, LNCaP, 48 h, read-out: LNCAP GI50) of 1.87 nM, a CC50 (LNCaP; Homo sapiens, LNCaP, 48 h, read-out: LNCAP LC50) of 8.33 nM and an IC (TGI) (LNCaP; Homo sapiens, LNCaP, 48 h, read-out: LNCAP TGI) of 3.95 nM. The GI50 (HT-29; Homo sapiens, HT-29, 48 h, read-out: HT29 GI50) was 4.33 nM, the CC50 (HT-29; Homo sapiens, HT-29, 48 h, read-out: HT29 LC50) was 2740 nM and the IC (TGI) (HT-29; Homo sapiens, HT-29, 48 h, read-out: HT29 TGI) was 18.3 nM. The GI50 (LoVo; Homo sapiens, LoVo, 48 h, read-out: LOVO GI50) was 3.82 nM, the CC50 (LoVo; Homo sapiens, LoVo, 48 h, read-out: LOVO LC50) was 2940 nM and the IC (TGI) (LoVo; Homo sapiens, LoVo, 48 h, read-out: LOVO TGI) was 8.54 nM. It also gave a GI50 (A-549; Homo sapiens, A549, 48 h, read-out: A549 GI50) of 3.34 nM, a CC50 (A-549; Homo sapiens, A549, 48 h, read-out: A549 LC50) of 2210 nM and an IC (TGI) (A-549; Homo sapiens, A549, 48 h, read-out: A549 TGI) of 8.17 nM.
